Laboratory results published in US20100256357A1, “HETEROCYCLES USEFUL AS INHIBITORS OF CARBONIC ANHYDRASE” (Agouron Pharmaceuticals, Inc., priority 2006, published 2010).
pIC50: −log10 of the molar value. Read-outs that look alike come from different tables or passages of the source.

Molecular target: T1, human CA-II (Homo sapiens, UniProt P00918)
T1 construct: purchased Sigma-Aldrich C6165
Assay: Carbonic Anhydrase-II (CA-II) Fluorimetric Assay-IC50 Determination
Assay type: biochemical
Conditions: for inhibition at 0.1 µM: at 100 nM (c7); for inhibition at 0.1 µM / inhibition at 0.01 µM: read-out: CA-II % inhibition at concentration of column 7; for inhibition at 0.01 µM: at 10 nM (c7)
Description: Carbonic Anhydrase-II (CA-II) Fluorimetric Assay-IC50 Determination
Compounds were diluted in DMSO at the concentration of 1 mM, then 50 μM and transferred to a 96-well plate for further dilutions (1:3 dilution, 11 points) in duplicate. Highest final concentration of compound in this CA-II Fluorimetric assay is 1 μM. Assays were conducted in a final volume of 100 μL in 50 mM Tris/HCl (pH 7.6), 100 mM Na2SO4 and 0.005% Tween-20 in a 96-well black assay plate. Fluorescein diacetate was used as the substrate. Enzyme inhibition was determined by pipetting 8 μL of human CA-II (5 nM, from Sigma-Aldrich, product #: C6165) into assay plate contained 2 μL of compound and 2 μL of substrate (10 μM) in 88 μL of assay buffer. The rate of the hydrolysis of fluorescein diacetate were measured spectrophometrically at 488 nm (excitation), 538 nm (emission) and 530 nm (cutoff) using a Molecular Devices SpectraMax M2 fluorescence reader at 25° C.

[1] = given instead of Kd (ND), read-out: CA-II IC50
[2] = Kd ND, IC50 given instead, read-out: CA-II IC50 (where Kd is ND)

inhibition at 0.1 µM [%]	pIC50 [1]	inhibition at 0.01 µM [%]	SMILES	other results
100	8.52		CC(C)CCN(C)C(=O)c1nc(Cc2ccccc2)n(-c2ccc(S(N)(=O)=O)cc2)n1 [Example R-31, 1-[4-(aminosulfonyl)phenyl]-5-benzyl-N-methyl-N-(3-methylbutyl)-1H-124-triazole-3-carboxamide]	
99			NS(=O)(=O)c1ccc(-n2nc(C(=O)N3CCCN(C=O)CC3)nc2Cc2ccccc2)cc1 [Example R-27, 4-(5-benzyl-3-[(4-formyl-14-diazepan-1-yl)carbonyl]-1H-124-triazol-1-yl)benzenesulfonamide]	
		97	CN(CCc1ccccc1)C(=O)c1nc(Cc2ccccc2)n(-c2ccc(S(N)(=O)=O)cc2)n1 [Example R-48, 1-[4-(aminosulfonyl)phenyl]-5-benzyl-N-methyl-N-(2-phenylethyl)-1H-124-triazole-3-carboxamide]	
		98	CCCN(CCc1ccccn1)C(=O)c1nc(Cc2ccccc2)n(-c2ccc(S(N)(=O)=O)cc2)n1 [Example R-58, 1-[4-(aminosulfonyl)phenyl]-5-benzyl-N-propyl-N-(2-pyridin-2-ylethyl)-1H-124-triazole-3-carboxamide]	
			CN(CC1CCCCO1)C(=O)c1nc(Cc2ccccc2)n(-c2ccc(S(N)(=O)=O)cc2)n1 (centres unmarked) [Example R-106, 1-[4-(aminosulfonyl)phenyl]-5-benzyl-N-methyl-N-(tetrahydro-2H-pyran-2-ylmethyl)-1H-124-triazole-3-carboxamide]	pIC50 [2]: 8.48
100			CCN(CCN(C)C)C(=O)c1nc(Cc2ccccc2)n(-c2ccc(S(N)(=O)=O)cc2)n1 [Example R-43, 1-[4-(aminosulfonyl)phenyl]-5-benzyl-N-[2-(dimethylamino)ethyl]-N-ethyl-1H-124-triazole-3-carboxamide]	
		95	Cc1noc(C2CCN(C(=O)c3nc(Cc4ccccc4)n(-c4ccc(S(N)(=O)=O)cc4)n3)C2)n1 (centres unmarked) [Example R-63, 4-(5-benzyl-3-{[3-(3-methyl-124-oxadiazol-5-yl)pyrrolidin-1-yl]carbonyl}-1H-124-triazol-1-yl)benzenesulfonamide]	
98	8.48		CC(C)CN(CC(C)C)C(=O)c1nc(Cc2ccccc2)n(-c2ccc(S(N)(=O)=O)cc2)n1 [Example R-40, 1-[4-(aminosulfonyl)phenyl]-5-benzyl-NN-diisobutyl-1H-124-triazole-3-carboxamide]	
			CN(Cc1ccccc1)C(=O)c1nc(Cc2ccccc2)n(-c2ccc(S(N)(=O)=O)cc2)n1 [Example R-109, 1-[4-(aminosulfonyl)phenyl]-N5-dibenzyl-N-methyl-1H-124-triazole-3-carboxamide]	pIC50 [2]: 8.44
	8.43	92	NS(=O)(=O)c1ccc(-n2nc(C(=O)N3CCCC3Cc3cccnc3)nc2Cc2ccccc2)cc1 (centres unmarked) [Example R-68, 4-(5-benzyl-3-{[2-(pyridin-3-ylmethyl)pyrrolidin-1-yl]carbonyl}-1H-124-triazol-1-yl)benzenesulfonamide]	
		95	Cc1csc(CN(C)C(=O)c2nc(Cc3ccccc3)n(-c3ccc(S(N)(=O)=O)cc3)n2)n1 [Example R-56, 1-[4-(aminosulfonyl)phenyl]-5-benzyl-N-methyl-N-[(4-methyl-13-thiazol-2-yl)methyl]-1H-124-triazole-3-carboxamide]	
		93	CN(Cc1n[nH]c2c1CCCC2)C(=O)c1nc(Cc2ccccc2)n(-c2ccc(S(N)(=O)=O)cc2)n1 [Example R-44, 1-[4-(aminosulfonyl)phenyl]-5-benzyl-N-methyl-N-(4567-tetrahydro-1H-indazol-3-ylmethyl)-1H-124-triazole-3-carboxamide]	
100	8.61		CN(C(=O)c1nc(Cc2ccccc2)n(-c2ccc(S(N)(=O)=O)cc2)n1)C1CCCC1 [Example R-30, 1-[4-(aminosulfonyl)phenyl]-5-benzyl-N-cyclopentyl-N-methyl-1H-124-triazole-3-carboxamide]	
101			NS(=O)(=O)c1ccc(-n2nc(C(=O)NC3Cc4ccccc4C3)nc2Cc2ccccc2)cc1 [Example R-33, 1-[4-(aminosulfonyl)phenyl]-5-benzyl-N-(23-dihydro-1H-inden-2-yl)-1H-124-triazole-3-carboxamide]	
		92	Cc1nc(CN(C)C(=O)c2nc(Cc3ccccc3)n(-c3ccc(S(N)(=O)=O)cc3)n2)cs1 [Example R-60, 1-[4-(aminosulfonyl)phenyl]-5-benzyl-N-methyl-N-[(2-methyl-13-thiazol-4-yl)methyl]-1H-124-triazole-3-carboxamide]	
	8.45	88	Cc1cc(C)n(CCN(C)C(=O)c2nc(Cc3ccccc3)n(-c3ccc(S(N)(=O)=O)cc3)n2)n1 [Example R-66, 1-[4-(aminosulfonyl)phenyl]-5-benzyl-N-[2-(35-dimethyl-1H-pyrazol-1-yl)ethyl]-N-methyl-1H-124-triazole-3-carboxamide]	
99			CN(C(=O)c1nc(Cc2ccccc2)n(-c2ccc(S(N)(=O)=O)cc2)n1)C(C1CC1)C1CC1 [Example R-28, 1-[4-(aminosulfonyl)phenyl)-5-benzyl-N-(dicyclopropylmethyl)-N-methyl-1H-124-triazole-3-carboxamide]	
		90	Cc1ncsc1CCN(C)C(=O)c1nc(Cc2ccccc2)n(-c2ccc(S(N)(=O)=O)cc2)n1 [Example R-65, 1-[4-(aminosulfonyl)phenyl]-5-benzyl-N-methyl-N-[2-(4-methyl-13-thiazol-5-yl)ethyl]-1H-124-triazole-3-carboxamide]	
		97	NS(=O)(=O)c1ccc(-n2nc(C(=O)N3CC(CO)C(c4ccccn4)C3)nc2Cc2ccccc2)cc1 (centres unmarked) [Example R-59, 4-(5-benzyl-3-{[(3R4R)-3-(hydroxymethyl)-4-pyridin-2-ylpyrrolidin-1-yl]carbonyl}-1H-124-triazol1-yl)benzenesulfonamide]	
97	8.44		CCN(CC)CCN(CC)C(=O)c1nc(Cc2ccccc2)n(-c2ccc(S(N)(=O)=O)cc2)n1 [Example R-39, 1-[4-(aminosulfonyl)phenyl]-5-benzyl-N-[2-(diethylamino)ethyl]-N-ethyl-1H-124-triazole-3-carboxamide]	
98	8.45		NS(=O)(=O)c1ccc(-n2nc(C(=O)N3CCOCC3)nc2Cc2ccccc2)cc1 [Example R-32, 4-[5-benzyl-3-(morpholin-4-ylcarbonyl)-1H-124-triazol-1-yl]benzenesulfonamide]	
			COc1cccc(CN(C)C(=O)c2nc(Cc3ccccc3)n(-c3ccc(S(N)(=O)=O)cc3)n2)c1 [Example R-103, 1-[4-(aminosulfonyl)phenyl]-5-benzyl-N-(3-methoxybenzyl)-N-methyl-1H-124-triazole-3-carboxamide]	pIC50 [2]: 8.51
			CC(C)C1(CO)CCN(C(=O)c2nc(Cc3ccccc3)n(-c3ccc(S(N)(=O)=O)cc3)n2)CC1 [Example R-73, 4-(5-benzyl-3-{[4-(hydroxymethyl)-4-isopropylpiperidin-1-yl]carbonyl}-1H-124-triazol-1-yl)benzenesulfonamide]	pIC50 [2]: 8.46
	8.53	94	Cc1cc(CN(C)C(=O)c2nc(Cc3ccccc3)n(-c3ccc(S(N)(=O)=O)cc3)n2)on1 [Example R-64, 1-[4-(aminosulfonyl)phenyl]-5-benzyl-N-methyl-N-[(3-methylisoxazol-5-yl)methyl]-1H-124-triazole-3-carboxamide]	
